Data from ChEMBL document CHEMBL1649203, “Pharmacokinetics and safety of famciclovir in children with herpes simplex or varicella-zoster virus infection” (Antimicrob Agents Chemother, 2009).

Assays:
Homo sapiens [1] = experiment: Toxicity in HSV-infected 1 to <2 years aged pediatric patient assessed as incidence of nausea at 30.9 mg/kg, po bid; assay type: organism-based; parameters: dose 30.9 mg/kg, route oral; details: in vivo
Homo sapiens [2] = experiment: Toxicity in HSV-infected 2 to <6 years aged pediatric patient assessed as incidence of vomiting at 27.6 mg/kg, po bid; assay type: organism-based; parameters: dose 27.6 mg/kg, route oral; details: in vivo
Homo sapiens [3] = experiment: Toxicity in HSV-infected 1 to <2 years aged pediatric patient assessed as incidence of abdominal pain at 30.9 mg/kg, po bid; assay type: organism-based, Abdomen; parameters: dose 30.9 mg/kg, route oral; details: in vivo
Homo sapiens [4] = experiment: Toxicity in HSV-infected 1 to <2 years aged pediatric patient assessed as pyrexia at 30.9 mg/kg, po administered as bid; assay type: organism-based; parameters: dose 30.9 mg/kg, route oral; details: in vivo
Homo sapiens [5] = experiment: Toxicity in HSV-infected 2 to <6 years aged pediatric patient assessed as pyrexia at 27.6 mg/kg, po bid; assay type: organism-based; parameters: dose 27.6 mg/kg, route oral; details: in vivo
Homo sapiens [6] = experiment: Toxicity in VZV-infected 1 to <2 years aged pediatric patient assessed as incidence of diarrhea at 40.8 mg/kg, po tid; assay type: organism-based; parameters: dose 40.8 mg/kg, route oral; details: in vivo
Homo sapiens [7] = experiment: Toxicity in HSV-infected 6 to <=12 years aged pediatric patient assessed as incidence of vomiting at 23.5 mg/kg, po bid; assay type: organism-based; parameters: dose 23.5 mg/kg, route oral; details: in vivo
[8] = Cmax in 2 to <6 years aged pediatric patient administered as single dose; assay type: ADME, organism-based; details: human, in vivo
Homo sapiens [9] = experiment: Toxicity in orally dosed HSV-infected patient assessed as pyrexia administered as bid; assay type: organism-based; details: in vivo, po
[10] = Tmax in 1 to <2 years aged pediatric patient administered as single dose; assay type: ADME, organism-based; details: human, in vivo
Homo sapiens [11] = experiment: Toxicity in HSV-infected 1 to <2 years aged pediatric patient assessed as incidence of vomiting at 30.9 mg/kg, po bid; assay type: organism-based; parameters: dose 30.9 mg/kg, route oral; details: in vivo
Homo sapiens [12] = experiment: AUC (0 to infinity) in 2 to <6 years aged pediatric patient administered as single dose; assay type: ADME, organism-based, Plasma; parameters: time infinity; details: in vivo
Homo sapiens [13] = experiment: Toxicity in VZV-infected 1 to <2 years aged pediatric patient assessed as incidence of nausea at 40.8 mg/kg, po tid; assay type: organism-based; parameters: dose 40.8 mg/kg, route oral; details: in vivo
Homo sapiens [14] = experiment: Toxicity in VZV-infected 2 to <6 years aged pediatric patient assessed as incidence of abdominal pain at 40.6 mg/kg, po tid; assay type: organism-based, Abdomen; parameters: dose 40.6 mg/kg, route oral; details: in vivo
Homo sapiens [15] = experiment: Toxicity in orally dosed VZV-infected patient assessed as incidence of diarrhea administered as tid; assay type: organism-based; details: in vivo, po
Homo sapiens [16] = experiment: Toxicity in HSV-infected 6 to <=12 years aged pediatric patient assessed as pyrexia at 23.5 mg/kg, po bid; assay type: organism-based; parameters: dose 23.5 mg/kg, route oral; details: in vivo
Homo sapiens [17] = experiment: AUC (0 to last) in 2 to <6 years aged pediatric patient administered as single dose; assay type: ADME, organism-based, Plasma; parameters: time 0 - last; details: in vivo
Homo sapiens [18] = experiment: Toxicity in HSV-infected 1 to <2 years aged pediatric patient assessed as incidence of headache at 30.9 mg/kg, po bid; assay type: organism-based; parameters: dose 30.9 mg/kg, route oral; details: in vivo
Homo sapiens [19] = experiment: Toxicity in VZV-infected 1 to <2 years aged pediatric patient assessed as incidence of abdominal pain at 40.8 mg/kg, po tid; assay type: organism-based, Abdomen; parameters: dose 40.8 mg/kg, route oral; details: in vivo
Homo sapiens [20] = experiment: Toxicity in VZV-infected 2 to <6 years aged pediatric patient assessed as at least one adverse event at 40.6 mg/kg, po tid; assay type: organism-based; parameters: dose 40.6 mg/kg, route oral; details: in vivo
[21] = Half life in 2 to <6 years aged pediatric patient administered as single dose; assay type: ADME, organism-based; details: human, in vivo
Homo sapiens [22] = experiment: Toxicity in HSV-infected 2 to <6 years aged pediatric patient assessed as incidence of diarrhea at 27.6 mg/kg, po bid; assay type: organism-based; parameters: dose 27.6 mg/kg, route oral; details: in vivo
Homo sapiens [23] = experiment: AUC (0 to infinity) in 1 to <2 years aged pediatric patient administered as single dose; assay type: ADME, organism-based, Plasma; parameters: time infinity; details: in vivo
[24] = Tmax in 2 to <6 years aged pediatric patient administered as single dose; assay type: ADME, organism-based; details: human, in vivo
Homo sapiens [25] = experiment: Toxicity in VZV-infected 6 to <=12 years aged pediatric patient assessed as at least one adverse event at 35.5 mg/kg, po tid; assay type: organism-based; parameters: dose 35.5 mg/kg, route oral; details: in vivo
Homo sapiens [26] = experiment: Toxicity in orally dosed VZV-infected patient assessed as pyrexia administered as tid; assay type: organism-based; details: in vivo, po
Homo sapiens [27] = experiment: Toxicity in VZV-infected 2 to <6 years aged pediatric patient assessed as incidence of cellulitis at 40.6 mg/kg, po tid; assay type: organism-based; parameters: dose 40.6 mg/kg, route oral; details: in vivo
Homo sapiens [28] = experiment: Toxicity in HSV-infected 2 to <6 years aged pediatric patient assessed as incidence of headache at 27.6 mg/kg, po bid; assay type: organism-based; parameters: dose 27.6 mg/kg, route oral; details: in vivo
Homo sapiens [29] = experiment: Toxicity in HSV-infected 6 to <=12 years aged pediatric patient assessed as incidence of abdominal pain at 23.5 mg/kg, po bid; assay type: organism-based, Abdomen; parameters: dose 23.5 mg/kg, route oral; details: in vivo
Homo sapiens [30] = experiment: Toxicity in VZV-infected 1 to <2 years aged pediatric patient assessed as at least one adverse event at 40.8 mg/kg, po tid; assay type: organism-based; parameters: dose 40.8 mg/kg, route oral; details: in vivo
[31] = Cmax in 1 to <2 years aged pediatric patient administered as single dose; assay type: ADME, organism-based; details: human, in vivo
Homo sapiens [32] = experiment: Toxicity in HSV-infected 6 to <=12 years aged pediatric patient assessed as incidence of nausea at 23.5 mg/kg, po bid; assay type: organism-based; parameters: dose 23.5 mg/kg, route oral; details: in vivo
[33] = Tmax in 6 to <=12 years aged pediatric patient administered as single dose; assay type: ADME, organism-based; details: human, in vivo
Homo sapiens [34] = experiment: Toxicity in VZV-infected 2 to <6 years aged pediatric patient assessed as incidence of diarrhea at 40.6 mg/kg, po tid; assay type: organism-based; parameters: dose 40.6 mg/kg, route oral; details: in vivo
Homo sapiens [35] = experiment: Toxicity in VZV-infected 2 to <6 years aged pediatric patient assessed as incidence of nausea at 40.6 mg/kg, po tid; assay type: organism-based; parameters: dose 40.6 mg/kg, route oral; details: in vivo
Homo sapiens [36] = experiment: Toxicity in VZV-infected 6 to <=12 years aged pediatric patient assessed as incidence of diarrhea at 35.5 mg/kg, po tid; assay type: organism-based; parameters: dose 35.5 mg/kg, route oral; details: in vivo

## Nc1nc2c(ncn2CCC(CO)CO)c(=O)[nH]1 [PENCICLOVIR]
Homo sapiens [1]
  Activity: 7.7%
Homo sapiens [2]
  Activity: 6.3%
Homo sapiens [3]
  Activity: 0%
Homo sapiens [4]
  Activity: 15.4%
Homo sapiens [5]
  Activity: 0%
Homo sapiens [6]
  Activity: 11.1%
Homo sapiens [7]
  Activity: 11.1%
[8]
  Cmax: 2780 ng/mL
Homo sapiens [9]
  Activity: 4.3%
[10]
  Tmax: 1.08 h
Homo sapiens [11]
  Activity: 15.4%
Homo sapiens [12]
  AUC: 7.23 ug/hr.ml
Homo sapiens [13]
  Activity: 0%
Homo sapiens [14]
  Activity: 0%
Homo sapiens [15]
  Activity: 11.3%
Homo sapiens [16]
  Activity: 0%
Homo sapiens [17]
  AUC: 6.31 ug/hr.ml
Homo sapiens [18]
  Activity: 0%
Homo sapiens [19]
  Activity: 0%
Homo sapiens [20]
  Activity: 52.6%
[21]
  half-life: 1.28 h
Homo sapiens [22]
  Activity: 6.3%
Homo sapiens [23]
  AUC: 7.16 ug/hr.ml
[24]
  Tmax: 1.07 h
Homo sapiens [25]
  Activity: 43.8%
Homo sapiens [26]
  Activity: 7.5%
Homo sapiens [27]
  Activity: 5.3%
Homo sapiens [28]
  Activity: 0%
Homo sapiens [29]
  Activity: 5.6%
Homo sapiens [30]
  Activity: 38.9%
[31]
  Cmax: 3060 ng/mL
Homo sapiens [32]
  Activity: 11.1%
[33]
  Tmax: 1 h
Homo sapiens [34]
  Activity: 5.3%
Homo sapiens [35]
  Activity: 5.3%
Homo sapiens [36]
  Activity: 18.8%
